In ChEMBL document CHEMBL5715954, “Silencing c-Myc translation as a therapeutic strategy through targeting PI3Kδ and CK1ε in hematological malignancies” (Blood, 2017):

Key:
Design in all cases: scale not given: the % may be the effect or the level left
[1] = target: T1, Ephrin type-A receptor 8 (Homo sapiens) (UniProt P29322); experiment: Inhibition of human EPHA8 assessed as enzyme activity at 1 uM using poly[Glu:Tyr] (4:1) as substrate preincubated for 20 mins followed by [gamma-33P]-ATP addition and measured after 120 mins by radiometric Hot-SpotSM Kinase assay relative to control
T1 sequence (whole entry): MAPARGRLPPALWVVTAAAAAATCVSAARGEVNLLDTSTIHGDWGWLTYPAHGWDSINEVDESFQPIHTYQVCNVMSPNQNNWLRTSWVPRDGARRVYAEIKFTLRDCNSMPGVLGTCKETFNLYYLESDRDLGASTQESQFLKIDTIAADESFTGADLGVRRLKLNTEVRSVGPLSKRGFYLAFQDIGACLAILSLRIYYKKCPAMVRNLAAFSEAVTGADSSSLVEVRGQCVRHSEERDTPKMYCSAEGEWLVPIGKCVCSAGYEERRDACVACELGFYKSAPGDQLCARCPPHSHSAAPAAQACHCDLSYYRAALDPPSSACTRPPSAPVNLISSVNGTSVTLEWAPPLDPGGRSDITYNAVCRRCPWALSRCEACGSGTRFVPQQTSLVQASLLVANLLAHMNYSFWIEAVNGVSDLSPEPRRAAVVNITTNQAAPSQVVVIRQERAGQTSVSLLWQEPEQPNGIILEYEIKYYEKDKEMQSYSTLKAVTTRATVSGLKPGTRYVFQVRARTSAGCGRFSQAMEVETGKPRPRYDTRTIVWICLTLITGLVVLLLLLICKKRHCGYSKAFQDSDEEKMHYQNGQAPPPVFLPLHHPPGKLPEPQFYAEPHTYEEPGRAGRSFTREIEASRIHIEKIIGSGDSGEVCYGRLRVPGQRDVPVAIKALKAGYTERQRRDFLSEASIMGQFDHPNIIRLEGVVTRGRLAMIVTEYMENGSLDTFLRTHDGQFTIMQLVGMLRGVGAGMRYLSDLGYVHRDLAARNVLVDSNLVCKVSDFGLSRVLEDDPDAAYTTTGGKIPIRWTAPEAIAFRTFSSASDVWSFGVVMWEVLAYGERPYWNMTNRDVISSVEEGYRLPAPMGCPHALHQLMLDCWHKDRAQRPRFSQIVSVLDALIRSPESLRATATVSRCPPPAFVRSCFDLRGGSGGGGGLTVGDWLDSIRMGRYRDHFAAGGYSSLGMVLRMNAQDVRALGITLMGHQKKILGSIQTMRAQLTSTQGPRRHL

[2] = target: MAP kinase-interacting serine/threonine-protein kinase 2 (Homo sapiens) (UniProt Q9HBH9); experiment: Inhibition of human MNK2 assessed as enzyme activity at 1 uM using myelin basic protein as substrate preincubated for 20 mins followed by [gamma-33P]-ATP addition and measured after 120 mins by radiometric Hot-SpotSM Kinase assay relative to control
[3] = target: T2, Serine/threonine-protein kinase TAO2 (Homo sapiens) (UniProt Q9UL54); experiment: Inhibition of human TAOK2 assessed as enzyme activity at 1 uM using myelin basic protein as substrate preincubated for 20 mins followed by [gamma-33P]-ATP addition and measured after 120 mins by radiometric Hot-SpotSM Kinase assay relative to control
T2 sequence (whole entry): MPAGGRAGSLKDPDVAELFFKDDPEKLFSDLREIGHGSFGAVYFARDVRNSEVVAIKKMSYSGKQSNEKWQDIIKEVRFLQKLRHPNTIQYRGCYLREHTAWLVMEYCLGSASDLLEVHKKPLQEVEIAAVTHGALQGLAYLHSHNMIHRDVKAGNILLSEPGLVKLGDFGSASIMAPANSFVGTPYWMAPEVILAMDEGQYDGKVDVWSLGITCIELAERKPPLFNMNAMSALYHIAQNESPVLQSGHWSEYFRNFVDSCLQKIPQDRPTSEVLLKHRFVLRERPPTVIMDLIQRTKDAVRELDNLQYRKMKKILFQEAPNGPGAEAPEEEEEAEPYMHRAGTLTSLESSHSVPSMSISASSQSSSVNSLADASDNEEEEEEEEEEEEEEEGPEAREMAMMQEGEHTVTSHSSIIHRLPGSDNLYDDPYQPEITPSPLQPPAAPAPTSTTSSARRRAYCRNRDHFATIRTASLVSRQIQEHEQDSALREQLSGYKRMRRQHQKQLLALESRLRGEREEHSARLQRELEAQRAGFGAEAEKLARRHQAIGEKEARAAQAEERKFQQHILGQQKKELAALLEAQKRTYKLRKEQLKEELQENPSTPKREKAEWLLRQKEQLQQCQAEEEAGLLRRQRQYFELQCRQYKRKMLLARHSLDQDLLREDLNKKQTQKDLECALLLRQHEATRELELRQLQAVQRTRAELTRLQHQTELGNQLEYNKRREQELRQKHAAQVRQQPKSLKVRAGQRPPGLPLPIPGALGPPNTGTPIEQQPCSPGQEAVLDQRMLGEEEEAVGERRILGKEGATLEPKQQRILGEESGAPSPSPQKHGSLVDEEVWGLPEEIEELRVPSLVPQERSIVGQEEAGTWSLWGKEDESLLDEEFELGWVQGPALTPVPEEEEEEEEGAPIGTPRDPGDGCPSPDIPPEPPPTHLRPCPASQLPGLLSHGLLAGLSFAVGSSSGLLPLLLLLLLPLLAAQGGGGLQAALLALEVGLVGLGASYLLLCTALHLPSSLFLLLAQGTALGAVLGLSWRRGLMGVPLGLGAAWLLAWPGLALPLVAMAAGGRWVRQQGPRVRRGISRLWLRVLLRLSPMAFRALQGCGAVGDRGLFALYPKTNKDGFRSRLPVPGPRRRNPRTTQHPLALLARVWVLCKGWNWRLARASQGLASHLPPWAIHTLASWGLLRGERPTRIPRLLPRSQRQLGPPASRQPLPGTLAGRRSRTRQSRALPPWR

[4] = target: Serine/threonine-protein kinase Nek4 (Homo sapiens) (UniProt P51957); experiment: Inhibition of human NEK4 assessed as enzyme activity at 1 uM using myelin basic protein as substrate preincubated for 20 mins followed by [gamma-33P]-ATP addition and measured after 120 mins by radiometric Hot-SpotSM Kinase assay relative to control
[5] = target: Dual specificity testis-specific protein kinase 1 (Homo sapiens) (UniProt Q15569); experiment: Inhibition of human TESK1 assessed as enzyme activity at 1 uM using cofilin 2 as substrate preincubated for 20 mins followed by [gamma-33P]-ATP addition and measured after 120 mins by radiometric Hot-SpotSM Kinase assay relative to control
[6] = target: ALK tyrosine kinase receptor (Homo sapiens) (UniProt Q9UM73); experiment: Inhibition of human ALK assessed as enzyme activity at 1 uM using poly[Glu:Tyr] (4:1) as substrate preincubated for 20 mins followed by [gamma-33P]-ATP addition and measured after 120 mins by radiometric Hot-SpotSM Kinase assay relative to control
[7] = target: Mitogen-activated protein kinase 1 (Homo sapiens) (UniProt P28482); experiment: Inhibition of human ERK2 assessed as enzyme activity at 1 uM using myelin basic protein as substrate preincubated for 20 mins followed by [gamma-33P]-ATP addition and measured after 120 mins by radiometric Hot-SpotSM Kinase assay relative to control
Sequence of Mitogen-activated protein kinase 1 (Homo sapiens) (P28482 whole entry): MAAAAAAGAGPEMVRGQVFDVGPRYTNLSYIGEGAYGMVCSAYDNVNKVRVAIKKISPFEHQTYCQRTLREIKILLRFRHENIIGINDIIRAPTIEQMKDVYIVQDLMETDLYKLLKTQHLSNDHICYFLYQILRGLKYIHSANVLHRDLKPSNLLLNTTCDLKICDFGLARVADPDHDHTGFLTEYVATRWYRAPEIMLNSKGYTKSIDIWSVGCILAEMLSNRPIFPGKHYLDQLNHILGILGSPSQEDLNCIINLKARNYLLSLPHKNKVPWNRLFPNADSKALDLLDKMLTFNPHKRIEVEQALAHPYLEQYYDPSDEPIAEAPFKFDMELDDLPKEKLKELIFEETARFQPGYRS

Sequence of MAP kinase-interacting serine/threonine-protein kinase 2 (Homo sapiens) (Q9HBH9 whole entry, looked up): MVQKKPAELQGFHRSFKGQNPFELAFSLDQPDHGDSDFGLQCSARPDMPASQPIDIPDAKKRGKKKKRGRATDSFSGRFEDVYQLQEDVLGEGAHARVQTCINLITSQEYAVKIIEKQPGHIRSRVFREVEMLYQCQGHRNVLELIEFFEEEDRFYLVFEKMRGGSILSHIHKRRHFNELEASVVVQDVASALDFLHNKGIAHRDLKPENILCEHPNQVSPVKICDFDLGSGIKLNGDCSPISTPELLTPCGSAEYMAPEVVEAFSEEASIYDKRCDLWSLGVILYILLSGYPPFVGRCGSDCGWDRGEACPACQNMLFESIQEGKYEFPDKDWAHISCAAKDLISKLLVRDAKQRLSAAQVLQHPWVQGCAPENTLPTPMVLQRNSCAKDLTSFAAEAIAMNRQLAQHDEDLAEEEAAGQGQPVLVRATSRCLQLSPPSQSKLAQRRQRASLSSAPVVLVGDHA
Sequence of Dual specificity testis-specific protein kinase 1 (Homo sapiens) (Q15569 whole entry, looked up): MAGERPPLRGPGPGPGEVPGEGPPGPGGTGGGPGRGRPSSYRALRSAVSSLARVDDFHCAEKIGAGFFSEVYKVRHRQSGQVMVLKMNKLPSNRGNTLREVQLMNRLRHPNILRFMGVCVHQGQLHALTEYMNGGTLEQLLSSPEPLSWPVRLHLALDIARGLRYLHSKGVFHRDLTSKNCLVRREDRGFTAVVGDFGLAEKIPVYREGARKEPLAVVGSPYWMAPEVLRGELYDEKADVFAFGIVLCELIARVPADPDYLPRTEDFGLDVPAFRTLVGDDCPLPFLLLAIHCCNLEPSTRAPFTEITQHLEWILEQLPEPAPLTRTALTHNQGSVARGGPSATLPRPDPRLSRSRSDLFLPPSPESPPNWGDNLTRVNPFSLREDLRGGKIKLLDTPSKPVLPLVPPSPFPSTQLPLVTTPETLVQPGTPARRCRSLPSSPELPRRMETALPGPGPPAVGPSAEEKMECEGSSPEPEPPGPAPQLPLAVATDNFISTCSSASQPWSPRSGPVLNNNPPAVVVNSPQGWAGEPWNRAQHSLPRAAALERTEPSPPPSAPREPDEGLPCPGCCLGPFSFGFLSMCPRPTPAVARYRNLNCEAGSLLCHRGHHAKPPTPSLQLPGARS
Sequence of ALK tyrosine kinase receptor (Homo sapiens) (Q9UM73 19-1620 limits assumed): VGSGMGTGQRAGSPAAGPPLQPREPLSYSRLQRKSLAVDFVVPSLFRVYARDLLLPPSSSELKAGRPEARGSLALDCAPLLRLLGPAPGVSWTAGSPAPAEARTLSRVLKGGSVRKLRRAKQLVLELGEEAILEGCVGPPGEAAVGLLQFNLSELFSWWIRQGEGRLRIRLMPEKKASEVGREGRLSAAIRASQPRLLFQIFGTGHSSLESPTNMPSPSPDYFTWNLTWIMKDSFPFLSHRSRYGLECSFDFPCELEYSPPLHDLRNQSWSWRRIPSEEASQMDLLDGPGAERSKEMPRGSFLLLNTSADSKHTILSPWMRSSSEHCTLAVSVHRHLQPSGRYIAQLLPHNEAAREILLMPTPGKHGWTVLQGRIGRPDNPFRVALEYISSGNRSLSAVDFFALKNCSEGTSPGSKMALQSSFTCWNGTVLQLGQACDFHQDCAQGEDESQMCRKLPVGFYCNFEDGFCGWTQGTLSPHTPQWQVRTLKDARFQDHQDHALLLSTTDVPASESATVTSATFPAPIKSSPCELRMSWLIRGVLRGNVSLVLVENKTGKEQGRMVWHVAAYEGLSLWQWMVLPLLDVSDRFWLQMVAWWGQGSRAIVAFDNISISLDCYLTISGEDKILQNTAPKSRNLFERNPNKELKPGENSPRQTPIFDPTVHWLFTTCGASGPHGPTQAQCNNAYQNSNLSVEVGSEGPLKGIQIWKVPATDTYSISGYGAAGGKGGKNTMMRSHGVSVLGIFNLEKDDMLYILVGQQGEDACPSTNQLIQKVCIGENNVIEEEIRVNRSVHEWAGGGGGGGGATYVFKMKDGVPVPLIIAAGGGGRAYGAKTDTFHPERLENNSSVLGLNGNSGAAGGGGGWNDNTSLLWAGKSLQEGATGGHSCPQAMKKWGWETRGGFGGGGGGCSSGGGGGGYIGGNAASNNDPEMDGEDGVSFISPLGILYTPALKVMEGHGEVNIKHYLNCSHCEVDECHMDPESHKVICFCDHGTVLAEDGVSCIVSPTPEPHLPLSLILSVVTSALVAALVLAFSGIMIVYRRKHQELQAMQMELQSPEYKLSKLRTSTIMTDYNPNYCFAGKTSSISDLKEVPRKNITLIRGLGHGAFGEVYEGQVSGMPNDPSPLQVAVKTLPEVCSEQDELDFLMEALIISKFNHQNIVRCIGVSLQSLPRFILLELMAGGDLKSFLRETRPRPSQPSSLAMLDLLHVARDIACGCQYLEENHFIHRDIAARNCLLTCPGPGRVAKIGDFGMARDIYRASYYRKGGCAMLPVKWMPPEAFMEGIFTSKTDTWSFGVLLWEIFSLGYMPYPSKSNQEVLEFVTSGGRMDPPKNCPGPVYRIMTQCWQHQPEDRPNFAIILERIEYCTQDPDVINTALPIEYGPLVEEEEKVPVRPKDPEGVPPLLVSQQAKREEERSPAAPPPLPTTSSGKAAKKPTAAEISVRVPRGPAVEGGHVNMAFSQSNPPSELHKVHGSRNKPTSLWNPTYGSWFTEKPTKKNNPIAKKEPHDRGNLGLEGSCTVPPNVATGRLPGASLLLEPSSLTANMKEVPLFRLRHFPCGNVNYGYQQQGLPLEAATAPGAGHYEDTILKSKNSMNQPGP
Sequence of Serine/threonine-protein kinase Nek4 (Homo sapiens) (P51957 whole entry, looked up): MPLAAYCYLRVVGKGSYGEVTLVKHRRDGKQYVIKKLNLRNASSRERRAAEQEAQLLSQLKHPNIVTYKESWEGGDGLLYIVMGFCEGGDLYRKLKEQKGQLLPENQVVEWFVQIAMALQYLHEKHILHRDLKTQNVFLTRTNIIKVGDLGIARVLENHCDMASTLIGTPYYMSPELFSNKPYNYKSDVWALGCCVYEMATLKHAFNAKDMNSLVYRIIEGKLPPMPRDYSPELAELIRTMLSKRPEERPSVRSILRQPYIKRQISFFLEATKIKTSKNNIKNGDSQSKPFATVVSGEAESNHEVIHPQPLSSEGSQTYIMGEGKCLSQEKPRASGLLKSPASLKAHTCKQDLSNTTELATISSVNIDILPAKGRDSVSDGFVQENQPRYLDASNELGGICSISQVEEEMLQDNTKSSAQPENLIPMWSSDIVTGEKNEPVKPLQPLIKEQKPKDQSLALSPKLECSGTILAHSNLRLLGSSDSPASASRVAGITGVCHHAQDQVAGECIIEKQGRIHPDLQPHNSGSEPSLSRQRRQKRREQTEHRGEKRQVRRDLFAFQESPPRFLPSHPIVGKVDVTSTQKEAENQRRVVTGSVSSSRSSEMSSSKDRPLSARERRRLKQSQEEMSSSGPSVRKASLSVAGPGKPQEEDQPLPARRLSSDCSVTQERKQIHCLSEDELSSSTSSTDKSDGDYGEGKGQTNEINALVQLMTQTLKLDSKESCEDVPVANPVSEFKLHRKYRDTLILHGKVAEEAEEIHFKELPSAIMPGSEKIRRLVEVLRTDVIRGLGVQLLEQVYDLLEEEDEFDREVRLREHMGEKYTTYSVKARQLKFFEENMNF

Compound	Activity [1] [%]	Activity [2] [%]	Activity [3] [%]	Activity [4] [%]	Activity [5] [%]	Activity [6] [%]	Activity [7] [%]
CC[C@H](Nc1ncnc2[nH]cnc12)c1nc2cccc(F)c2c(=O)n1-c1ccccc1	97.6	105	96.7	95.5	98.7	100	93.6
C[C@H](Nc1ncnc2nc[nH]c12)c1cc2cccc(Cl)c2c(=O)n1-c1ccccc1	99.1	99.9	93.3	92.2	102	96.7	97.2
CC(C)Oc1ccc(-c2nn([C@@H](C)c3oc4ccc(F)cc4c(=O)c3-c3cccc(F)c3)c3ncnc(N)c23)cc1F [UMBRALISIB]	95.8	102	97.3	87.8	98	96.5	94.2
